From PubChem BioAssay AID250 (DTP/NCI, 2004) come the findings set out here.

Each structure is given as a SMILES string. Values joined by “and” are separate entries in the source; they are usually repeats but may differ in a detail not shown here. Identical values can stand only once. Toxic doses and inconclusive results are not listed.

For the experiment, the system named is BDF1 mice, L1210 leukemia sc, survival T/C. In words: NCI In Vivo Anticancer Drug Screen. Data for tumor model L1210 Leukemia (subcutaneous) in B6D2F1 (BDF1) mice. The note with it: higher = longer survival. In outline: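 Antitumor activity is assessed in mice with transplanted tumors by comparing the treated group (T) with the vehicle control group (C).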

The mark [1] stands for this setting: endpoint: median survival time, dose: 39.0 mg/kg/injection, schedule: Q01DX Z (sc), vehicle: methylcellulose (MC).
[2] abbreviates: endpoint: median survival time, dose: 65.0 mg/kg/injection, schedule: Q01DX Z (sc), vehicle: methylcellulose (MC).
[3] abbreviates: endpoint: median survival time, dose: 108.0 mg/kg/injection, schedule: Q01DX Z (sc), vehicle: methylcellulose (MC).
Where [4] appears, read: endpoint: median survival time, dose: 180.0 mg/kg/injection, schedule: Q01DX Z (sc), vehicle: methylcellulose (MC).

With `CC[C@H]1CN2CCc3cc(OC)c(OC)cc3[C@@H]2C[C@@H]1C[C@H]1NCCc2cc(OC)c(OC)cc21`, the T/C is, setting by setting: (endpoint: median survival time, dose: 0.39 mg/kg/injection, schedule: Q03HX003 (sc), vehicle: saline) 107 % of control; (endpoint: median survival time, dose: 0.65 mg/kg/injection, schedule: Q03HX003 (sc), vehicle: saline) 92 % of control; (endpoint: median survival time, dose: 1.08 mg/kg/injection, schedule: Q03HX003 (sc), vehicle: saline) 100 % of control; (endpoint: median survival time, dose: 1.8 mg/kg/injection, schedule: Q01DX009 (sc), vehicle: saline) 100 % of control; (endpoint: median survival time, dose: 1.8 mg/kg/injection, schedule: Q03HX003 (sc), vehicle: saline) 114 % of control; (endpoint: median survival time, dose: 3.0 mg/kg/injection, schedule: Q01DX009 (sc), vehicle: saline) 103 % of control. Besides, the T/C (endpoint: median survival time, dose: 5.0 mg/kg/injection, schedule: Q04DX003 (sc), vehicle: saline) was 96 % of control; the T/C (endpoint: median survival time, dose: 8.4 mg/kg/injection, schedule: Q04DX003 (sc), vehicle: saline) is 107 % of control; the T/C (endpoint: median survival time, dose: 16.0 mg/kg/injection, schedule: Q01DX001 (ip), vehicle: acid diluted with saline) was 124 % of control.
Consider `N[C@H](C(=O)O)[C@H]1ON=C(Cl)[C@@H]1O`, for which the T/C was 111 % of control (endpoint: median survival time, dose: 8.0 mg/kg/injection, schedule: Q01DX009 (sc), vehicle: saline); 150 % of control and 156 % of control (endpoint: median survival time, dose: 32.0 mg/kg/injection, schedule: Q01DX009 (sc), vehicle: saline); 153 % of control and 156 % of control (endpoint: median survival time, dose: 64.0 mg/kg/injection, schedule: Q01DX009 (sc), vehicle: saline); 156 % of control and 160 % of control (endpoint: median survival time, dose: 128.0 mg/kg/injection, schedule: Q01DX009 (sc), vehicle: saline); 157 % of control and 176 % of control (endpoint: median survival time, dose: 256.0 mg/kg/injection, schedule: Q01DX009 (sc), vehicle: saline); 176 % of control (endpoint: median survival time, dose: 512.0 mg/kg/injection, schedule: Q01DX009 (sc), vehicle: saline). Further, for the setting “endpoint: median survival time, dose: 1024.0 mg/kg/injection, schedule: Q01DX009 (sc), vehicle: saline”, the T/C was 177 % of control.
Take `CN(N=O)C(=O)NC(C=O)C(O)C(O)C(O)CO` (configuration not stated): the T/C runs as follows: (endpoint: median survival time, dose: 39.0 mg/kg/injection, schedule: Q01DX Z (sc), vehicle: saline) 100 % of control; (endpoint: median survival time, dose: 65.0 mg/kg/injection, schedule: Q01DX Z (sc), vehicle: saline) 112 % of control; (endpoint: median survival time, dose: 108.0 mg/kg/injection, schedule: Q01DX Z (sc), vehicle: saline) 100 % of control; (endpoint: median survival time, dose: 180.0 mg/kg/injection, schedule: Q01DX Z (sc), vehicle: saline) 112 % of control; (endpoint: median survival time, dose: 300.0 mg/kg/injection, schedule: Q01DX Z (sc), vehicle: saline) 112 % of control; (endpoint: median survival time, dose: 500.0 mg/kg/injection, schedule: Q01DX Z (sc), vehicle: saline) 100 % of control.
On to `CCN(CC)CCNc1ccc(C)c2sc3ccccc3c(=O)c12` (tested in a mixture with another compound), for which the T/C by setting is: under setting [1], 100 % of control; under setting [2], 100 % of control; under setting [3], 100 % of control; under setting [4], 100 % of control; (endpoint: median survival time, dose: 200.0 mg/kg/injection, schedule: Q01DX Z (sc), vehicle: methylcellulose (MC)) 111 % of control.
`CC(=O)Nc1ccc2c(Nc3ccc(NS(C)(=O)=O)cc3)c3ccccc3nc2c1`: the T/C was 114 % of control (endpoint: mean survival time, dose: 1.5 mg/kg/injection, schedule: Q01DX009 (sc), vehicle: saline); 111 % of control (endpoint: mean survival time, dose: 3.0 mg/kg/injection, schedule: Q01DX009 (sc), vehicle: saline); 121 % of control (endpoint: mean survival time, dose: 6.25 mg/kg/injection, schedule: Q01DX009 (sc), vehicle: saline); 182 % of control (endpoint: mean survival time, dose: 12.5 mg/kg/injection, schedule: Q01DX009 (sc), vehicle: saline).
With `CN(Cc1cnc2nc(N[Si](C)(C)C)nc(N[Si](C)(C)C)c2n1)c1ccc(C(=O)NC(CCC(=O)O[Si](C)(C)C)C(=O)O[Si](C)(C)C)cc1` (configuration not stated), the T/C by setting is: (endpoint: mean survival time, dose: 1.0 mg/kg/injection, schedule: Q01DX009 (ip), vehicle: Klucel (hydroxypropylcellulose) (HPC)) 150 % of control; (endpoint: mean survival time, dose: 2.0 mg/kg/injection, schedule: Q01DX009 (ip), vehicle: Klucel (hydroxypropylcellulose) (HPC)) 169 % of control; (endpoint: mean survival time, dose: 4.0 mg/kg/injection, schedule: Q01DX009 (ip), vehicle: Klucel (hydroxypropylcellulose) (HPC)) 176 % of control; (endpoint: mean survival time, dose: 8.0 mg/kg/injection, schedule: Q01DX009 (ip), vehicle: Klucel (hydroxypropylcellulose) (HPC)) 169 % of control; (endpoint: mean survival time, dose: 8.0 mg/kg/injection, schedule: Q04DX003 (ip), vehicle: Klucel (hydroxypropylcellulose) (HPC)) 156 % of control; (endpoint: mean survival time, dose: 16.0 mg/kg/injection, schedule: Q01DX009 (ip), vehicle: Klucel (hydroxypropylcellulose) (HPC)) 119 % of control. Moreover, the T/C is, setting by setting: (endpoint: mean survival time, dose: 32.0 mg/kg/injection, schedule: Q04DX003 (ip), vehicle: Klucel (hydroxypropylcellulose) (HPC)) 160 % of control; (endpoint: mean survival time, dose: 64.0 mg/kg/injection, schedule: Q04DX003 (ip), vehicle: Klucel (hydroxypropylcellulose) (HPC)) 160 % of control.
Take `Nc1[nH]c(=O)nc2[nH]ncc12`: the T/C is 100 % of control (endpoint: median survival time, dose: 46.8 mg/kg/injection, schedule: Q01DX Z (sc), vehicle: methylcellulose (MC)); 100 % of control (endpoint: median survival time, dose: 78.0 mg/kg/injection, schedule: Q01DX Z (sc), vehicle: methylcellulose (MC)); 100 % of control (endpoint: median survival time, dose: 130.0 mg/kg/injection, schedule: Q01DX Z (sc), vehicle: methylcellulose (MC)); 108 % of control (endpoint: median survival time, dose: 216.0 mg/kg/injection, schedule: Q01DX Z (sc), vehicle: methylcellulose (MC)); 104 % of control (endpoint: median survival time, dose: 360.0 mg/kg/injection, schedule: Q01DX Z (sc), vehicle: methylcellulose (MC)); 100 % of control (endpoint: median survival time, dose: 600.0 mg/kg/injection, schedule: Q01DX Z (sc), vehicle: methylcellulose (MC)).
For `CS(=O)(=O)Nc1ccc(Nc2c3ccccc3nc3cc(N)ccc23)cc1`, the T/C is, setting by setting: (endpoint: mean survival time, dose: 1.0 mg/kg/injection, schedule: Q01DX009 (ip), vehicle: saline) 103 % of control; (endpoint: mean survival time, dose: 2.0 mg/kg/injection, schedule: Q01DX009 (ip), vehicle: saline) 99 % of control.
In the case of `CCN(CC)C(=O)c1cccnc1`, the T/C (endpoint: median survival time, dose: 28.0 mg/kg/injection, schedule: Q01DX Z (sc), vehicle: water) was 109 % of control; the T/C (endpoint: median survival time, dose: 46.7 mg/kg/injection, schedule: Q01DX Z (sc), vehicle: water) is 100 % of control; the T/C (endpoint: median survival time, dose: 77.8 mg/kg/injection, schedule: Q01DX Z (sc), vehicle: water) is 100 % of control; the T/C (endpoint: median survival time, dose: 130.0 mg/kg/injection, schedule: Q01DX Z (sc), vehicle: water) is 100 % of control; the T/C (endpoint: median survival time, dose: 216.0 mg/kg/injection, schedule: Q01DX Z (sc), vehicle: water) was 100 % of control.
Regarding `CC(=O)OCC(=O)[C@@]1(O)CC[C@H]2[C@@H]3CCC4=CC(=O)CC[C@]4(C)[C@@]3(F)[C@@H](O)C[C@@]21C`, the T/C was 100 % of control under setting [1]; 100 % of control under setting [2]; 100 % of control under setting [3]; 104 % of control under setting [4]; 100 % of control (endpoint: median survival time, dose: 300.0 mg/kg/injection, schedule: Q01DX Z (sc), vehicle: methylcellulose (MC)); 100 % of control (endpoint: median survival time, dose: 500.0 mg/kg/injection, schedule: Q01DX Z (sc), vehicle: methylcellulose (MC)).
`CCS(=O)(=O)Nc1cccc(Nc2c3cccc(C)c3nc3c(C)cccc23)c1OC`: the T/C reads like this: (endpoint: mean survival time, dose: 12.5 mg/kg/injection, schedule: Q01DX009 (sc), vehicle: Klucel (hydroxypropylcellulose) (HPC)) 105 % of control; (endpoint: mean survival time, dose: 25.0 mg/kg/injection, schedule: Q01DX009 (sc), vehicle: Klucel (hydroxypropylcellulose) (HPC)) 100 % of control; (endpoint: mean survival time, dose: 50.0 mg/kg/injection, schedule: Q01DX009 (sc), vehicle: Klucel (hydroxypropylcellulose) (HPC)) 104 % of control; (endpoint: mean survival time, dose: 100.0 mg/kg/injection, schedule: Q01DX009 (sc), vehicle: Klucel (hydroxypropylcellulose) (HPC)) 112 % of control.
